System: potential human pathogenic microorganisms
Test: Antimicrobial activity assay, overall assessment across target microorganisms
Assay type: cell-based
Details: among the seven antimicrobials tested, in the polymer coatings
Experimental: The selection of target microorganisms for examining the antimicrobial activity of the coated polydimethylsiloxane substrates produced in the Control Example and Examples 1-16 was based on the potential human pathogenic microorganisms, which include gram positive bacteria, Bacillus subtilis and Staphylococcus aureus; gram negative bacteria, E. coli and Pseudomonas aeruginosa; and yeast, Candida albicans. Broth cultures were prepared for each microorganism. Bacteria, Bacillus subtilis, Staphylococcus aureus, E. coli and Pseudomonas aeruginosa were grown in 50 milliliters of sterile tryptic soy broth in a 500 milliliter baffle flask at 200 rpm. The cultures were grown at 37° C. overnight, and used for antimicrobial activity assay plates and stock culture. The yeast, Candida albicans was cultivated in 50 milliliters of sterile yeast malt broth in a 250 milliliter baffle flask at 25-28° C. for 1 day and used for the activity assay plates and stock culture.
Antimicrobial activity assay plates were then prepared. Yeast malt agar and tryptic soy agar were autoclaved for 20 minutes. The sterile molten agar was allowed to cool to 42-45° C. The prepared broth cultures of the target microorganisms were inoculated to a final concentration of 5% (v/v). […]

Which “Antimicrobial activity: ability to suppress the colonization and spectrum of action (in words)” value does the source give for `[H]/N=C(\N/C(=N/[H])NCCCCCCNC(=N)NC(=N)Nc1ccc(Cl)cc1)Nc1ccc(Cl)cc1` [chlorhexidine, 1,6-bi(N^5-p-chlorophenyl-N^1-biguanido)hexane] here?
Its value is “high activity”.

Source: patent US6939554B2, “Antimicrobial polymer” (Michigan Biotechnology Institute, priority 2002, dated 2005)
